In paper PMC8397297 (ACS Chemical Neuroscience, 2021):
“Also recorded” adds a separate entry of the source.

Tests used:
mGAT2 = biological target: T1, mGAT2 (Mus musculus, UniProt P31651); test: [3H]GABA uptake assay in HEK-293 cells stably expressing mGAT2; assay type: cell-based; conditions: [3H]GABA uptake; read-out: pIC50 ± SEM mGAT2 (converted)
T1 construct: expressed in transfected cells; host or cells: HEK-293
T1 sequence (P31651 1-614): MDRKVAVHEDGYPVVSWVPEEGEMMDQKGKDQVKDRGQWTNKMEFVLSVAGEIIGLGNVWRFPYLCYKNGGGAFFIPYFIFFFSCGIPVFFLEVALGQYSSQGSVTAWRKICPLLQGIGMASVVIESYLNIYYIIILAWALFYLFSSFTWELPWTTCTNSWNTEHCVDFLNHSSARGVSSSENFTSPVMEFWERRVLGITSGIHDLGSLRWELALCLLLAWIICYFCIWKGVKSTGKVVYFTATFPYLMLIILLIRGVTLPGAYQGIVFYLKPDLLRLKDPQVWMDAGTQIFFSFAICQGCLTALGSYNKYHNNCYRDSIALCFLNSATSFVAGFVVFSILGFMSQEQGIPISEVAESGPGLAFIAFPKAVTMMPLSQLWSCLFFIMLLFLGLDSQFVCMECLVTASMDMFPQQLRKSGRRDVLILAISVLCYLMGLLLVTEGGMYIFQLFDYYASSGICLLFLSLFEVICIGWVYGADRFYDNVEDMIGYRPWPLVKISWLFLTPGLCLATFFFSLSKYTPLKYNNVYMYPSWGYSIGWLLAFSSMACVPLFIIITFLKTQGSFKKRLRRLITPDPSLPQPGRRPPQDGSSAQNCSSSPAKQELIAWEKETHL

mGAT1 [1] = biological target: T2, mGAT1 (Mus musculus, UniProt P31648); test: [3H]GABA uptake assay in HEK-293 cells stably expressing mGAT1; assay type: cell-based; conditions: for IC50: [3H]GABA uptake, read-out: pIC50 ± SEM mGAT1 (converted)
T2 construct: expressed in transfected cells; host or cells: HEK-293

oxaliplatin-treated mice [2] = test: oxaliplatin-induced peripheral neuropathy, tactile allodynia (von Frey test); assay type: in vivo, mouse
Protocol: (§1) Before the in vivo tests, the test compounds were suspended in 1% Tween 80 (Baxter, Poland). The compounds were then administered intraperitoneally. […] The test compounds were administered only once daily on days 1 and 7 of oxaliplatin- or paclitaxel-induced neuropathy. In STZ-treated mice, test compounds were administered 21 days after STZ injection. Control mice used in oxaliplatin and paclitaxel NP models were injected with an appropriate amount of vehicle (0.9% saline). Oxaliplatin was purchased from Activate Scientific GmbH (Germany). Paclitaxel and STZ were purchased from Sigma-Aldrich (Poland).
(§2) For pain studies, oxaliplatin was dissolved in 5% glucose solution (Polfa Kutno, Poland). The dose of oxaliplatin used to induce peripheral neuropathy (10 mg/kg, intraperitoneal injection) was chosen on the basis of previous research[63],[64] and available literature data.[65]
The ability of the test compounds to attenuate tactile allodynia caused by oxaliplatin, paclitaxel, and STZ was assessed using the von Frey test. For this purpose, 3 h after oxaliplatin or paclitaxel and 21 days after STZ injection, the predrug paw withdrawal threshold was measured for each mouse. Then, the test compounds were administered, and 1 h later, the postdrug paw withdrawal threshold was collected for each animal. This part of the experiment aimed to establish the effect of treatment on early phase (acute) pain hypersensitivity induced by cytotoxic drugs. Additionally, in the oxaliplatin model and the paclitaxel model, to assess the effect of test compounds on late phase tactile allodynia, 7 days later, measurements of the predrug and postdrug paw withdrawal thresholds were made in a similar manner to the measurements performed during early phase neuropathy. At this stage of the experiment, there was no additional oxaliplatin/paclitaxel administration.
An electronic von Frey unit (Bioseb, France) was used to assess the mechanical nociceptive threshold (tactile allodynia) in mice. This device has a single flexible filament that applies increasing force (from 0 to 10 g) against the plantar surface of the hind paw of each mouse. In the von Frey test, the paw withdrawal response of the animals automatically turns off the stimulus, and the mechanical pressure that evokes this response is recorded. On the day of the experiment, the mice were placed individually in test compartments with a wire mesh bottom and left there for 1 h of habituation. Subsequently, to obtain baseline values, each mouse was tested 3 times alternately in each hind paw. Then, the test compounds were administered, and 1 h later, 3 additional measurements were taken and averaged to obtain the mean postdrug values for each mouse.[69]

oxaliplatin-treated mice [3] = test: oxaliplatin-induced peripheral neuropathy, cold hyperalgesia (cold plate test); assay type: in vivo, mouse
Protocol: as §1, §2
A cold plate apparatus (hot/cold plate, Bioseb, France) set at 2.5 °C was used to assess the effect of treatment on cold hyperalgesia in oxaliplatin-treated mice. The cold plate test was conducted immediately after the von Frey test. Three hours after oxaliplatin administration, the animals were placed on a cold plate apparatus, and predrug latencies to pain reaction (i.e., lifting, biting, shaking of hind paws, jumping, movement deficits, or writhing response) were collected. Finally, the test compounds were injected, and 1 h later, the postdrug latencies to pain reaction were measured.

HEK-293 cells = test: HEK-293 cytotoxicity assay (MTS); assay type: cell-based, human; conditions: for concentration with significant (p < 0.0001) decrease in HEK-293 cell viability: 72 h of incubation; for concentration of observed antiproliferative effects: summary of HepG2 and HEK-293 assays
Protocol: Subsequently, a similar study was performed with the HEK-293 cell line.
Hepatotoxicity and cytotoxicity were estimated according to previously described protocols[62] using the hepatoma HepG2 (ATCC HB-8065) and human embryonic kidney HEK-293 (ATCC CRL1573) cell lines, respectively. In brief, cells were seeded in 96-well plates at a density of 0.7 × 10^4 and cultured at 37 °C in an atmosphere containing 5% CO2. Next, the compounds were added and investigated in quadruplicate at concentrations ranging from 0.1 to 100 μM for 72 h. The antiproliferative drug DX was used as the reference. The CellTiter 96 AQueous nonradioactive cell proliferation assay (MTS) purchased from Promega (Madison, WI, USA) was used for the determination of cell viability. The absorbance at 492 nm was measured using an EnSpire microplate reader (PerkinElmer, Waltham, MA, USA).

mGAT1 [4] = biological target: T2, mGAT1; test: competitive MS binding assay with NO711 as unlabeled marker (LC-ESI-MS/MS); conditions: for remaining NO711 binding mGAT1: in the presence of 100 μM inhibitor
Method in brief: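 Competitive MS binding with unlabeled NO711 as marker, quantified by LC–ESI-MS/MS. Compounds screened at 100 μM for inhibition of marker binding.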

[5] = early (acute) phase of oxaliplatin-induced neuropathy, i.p., 50a and 56a at both doses (10 and 30 mg/kg)
[6] = early phase of oxaliplatin-induced neuropathy, i.p.

Row | IC50 (mGAT2) | remaining [3H]GABA uptake mGAT1 (mGAT1 [1]; in the presence of 100 μM inhibitor) | remaining NO711 binding mGAT1 (mGAT1 [4]) | IC50 (mGAT1 [1]) | Ki (mGAT1 [4]; MS binding assay, read-out: pKi ± SEM mGAT1 (converted)) | Compound | effect on mechanical nociceptive threshold (tactile allodynia), von Frey test (oxaliplatin-treated mice [2]; [5]) | effect on cold hyperalgesia, cold plate test (oxaliplatin-treated mice [3]; [6]) | concentration with significant (p < 0.0001) decrease in HEK-293 cell viability (HEK-293 cells) | concentration of observed antiproliferative effects (HEK-293 cells) | safety profile in HEK-293 cells (HEK-293 cells; 72 h, compared with HepG2) | effect on mechanical nociceptive threshold (tactile allodynia), von Frey test (oxaliplatin-treated mice [2]; late phase (7 days after oxaliplatin), 10 mg/kg i.p., 10 mg/kg) | effect on cold hyperalgesia, cold plate test (oxaliplatin-treated mice [3]; early (acute) phase of oxaliplatin-induced neuropathy, 30 mg/kg i.p., 30 mg/kg)
1 | 20.4 µM | 100 μM: 52% | 100 μM: 69% |  |  | Cc1ccc(CNC(=O)[C@@H](C[C@@H](C)O)N(C)CCC=C2c3ccccc3CCc3ccccc32)cc1 (relative stereo) [Compound 2RS,4RS-39c, 2-((3-(10,11-Dihydro-5H-dibenzo[a,d][7]annulen-5-ylidene)propyl)(methyl)amino)-4-hydroxy-N-(4-methylbenzyl)pentanamide] | not effective | not effective | 25 µM | 25 µM |  |  | 
2 | 3.72 µM |  |  | 20 µM | 33.1 µM | CN(CCON=C(c1ccccc1)c1ccccc1)C(CCN)C(=O)NCc1ccccc1Cl (stereo not shown) [Compound 50a, 4-Amino-N-[(2-chlorophenyl)methyl]-2-[(2-{[(diphenylmethylidene)amino]oxy}ethyl)(methyl)amino]butanamide] | significantly elevated the pain threshold for mechanical stimulation; also recorded: showed antiallodynic properties | not effective |  | 1 µM | comparable safety profile in HEK-293 and HepG2 cells |  | 
3 | 27.5 µM |  | 100 μM: 68% | 21.4 µM |  | CN(CCC=C1c2ccccc2CCc2ccccc21)C(CO)C(=O)NCc1ccccc1 (stereo not shown) [Compound 56a, N-Benzyl-2-((3-(10,11-dihydro-5H-dibenzo[a,d][7]annulen-5-ylidene)propyl)(methyl)amino)-3-hydroxypropanamide] | reduced tactile allodynia; also recorded: showed antiallodynic properties |  | 25 µM | 25 µM |  | showed antiallodynic properties in the acute and late phases | reduced cold hyperalgesia in the acute phase
